The subject of experiment [1] is HT-1080 cells. Kind of experiment: Caspase 3/7 activation assay (CellEvent / SYTOX), HT-1080. In kind it is cell-based, human. The note with it: 10 μM, 4 h, Fig. 4B. From the text: (§1) A complementary perspective on GO-203-induced apoptosis is provided by the caspase 3/7 activation assay, Fig. 4. In both HT-1080 and ZR-75-1, the data offer a clear view of the early and late apoptotic populations. The time dependence illustrated in Fig. 4E,F confirms that the onset of apoptosis occurs sufficiently rapidly in both cell lines – by the time of flow-cytometry observations the system has already approached the steady state. In the literature there is some evidence that activation of executioner caspases may precede the translocation of phosphatidylserine to the outer leaf of the membrane. While this could be in principle relevant for comparison between the Annexin V assay and caspase activation assay, one should bear in mind that in our case both assays offer a snapshot of a fairly advanced apoptotic process.
(§2) Figure 4 GO-203-induced apoptosis in HT-1080 and ZR-75-1 cells as assessed by the double staining with CellEvent caspase-3/7 green detection reagent and vital dye SYTOX. (A–D) Flow cytometry histograms for the cells incubated for 4 h with 10 μM of GO-203 and the untreated (control) cells. (E–G) Apoptotic fractions in the GO-203-treated and untreated (control) cells as a function of incubation time and GO-203 concentration. TEXT PRINTED IN THE PICTURE: (B) GO-203: HT-1080: IV.(0.11 %); HT-1080: III.(64.49 %); HT-1080: I.(12.21 %); HT-1080: II.(23.20 %) | (D) GO-203: ZR-75-1: IV.(0.40 %); ZR-75-1: III.(35.18 %); ZR-75-1: I.(28.95 %); ZR-75-1: II.(35.47 %)
(§3) The adherent cells were rinsed with PBS, harvested using trypsin-EDTA solution and suspended in the growth medium. To analyze cell cycle phase distribution, 200 μg/ml of saponin (Fluka, USA), 250 μg/ml RNase A, and 50 μg/ml of propidium iodide (both Sigma-Aldrich, USA) were added to each sample tube, thus obtaining DNA stain buffer. After 1 h incubation at room temperature, the samples were analyzed by flow cytometry. To detect apoptosis by flow cytometry, CellEvent Caspase-3/7 Green Flow Cytometry Assay Kit (Thermo Fisher Scientific, USA) and Annexin-V FITC conjugate (BD Biosciences, USA) in combination with propidium iodide have been employed following the manufacturer’s protocols.
(§4) Cell fluorescence was measured using CytoFLEX (Beckman Coulter, USA) flow cytometer equipped with 3 lasers (405, 488 and 633 nm). Cells were gated on FSC/SSC to remove debris. Mean fluorescence intensity from 10,000 cells was acquired.

Experiment [2] concerns human fibrosarcoma cell line HT-1080. In kind it is cell-based. As to conditions: HT-1080.
Experiment [3] relates to HT-1080 cells. In words: Time-lapse microscopy and side angle light scatter, HT-1080. In kind it is cell-based, human. As for the experimental part:
The data from time-lapse microscopy on HT-1080 cells provide a visual evidence of GO-203-induced apoptosis, Fig. 5 (see also Film S1). […] After 1.5 h we observe the fully developed picture of apoptosis. This is illustrated in the right panel of Fig. 5: three cells in this photograph experience blebbing, while the fourth cell located in the upper right portion of the image has undergone detachment and rounded up (it is soon to enter the blebbing phase). This time line is confirmed by the side angle light scatter data from the flow-cytometry experiment, Fig. 6C. […] This behavior reflects the onset of dynamic blebbing and the concomitant increase in the roughness of the cell surface. In this context it is worth noting that actomyosin cortex contraction and blebbing are subsequent to (and in fact driven by) caspase activation. The condensation of nucleus and cytoplasm in apoptotic cells can also contribute to the increased side scatter.
Figure 5 Time-lapse microscopy of HT-1080 cells. (A) Cells before the addition of the peptide and (B) 1 h 20 min after the addition of 5 μM GO-203.
Figure 6 Dynamics of (A) mitochondrial membrane potential, (B) intracellular ROS levels, and (C) cell refractive properties in suspended HT-1080 cells following the addition of 5 μM GO-203.
The cells were seeded into 35-mm Nunc culture dishes (Thermo Scientific, USA) at 1.2 × 10^5 cells per dish and allowed to attach for 24 h. To monitor intracellular ROS in a time-dependent manner, the cells were incubated for 30 min with 10 μM of carboxy-H2DCFDA (Invitrogen, USA), then harvested with trypsin-EDTA and suspended in a fresh medium. After that GO-203 was added directly to the suspension and cell fluorescence was measured by flow cytometry at multiple time points during the following 2 hours. The same procedure was used for mitochondria-specific fluorescent dye Rhodamine 123 (Thermo Fisher Scientific, USA), which was added to a concentration of 5 μM. The complementary side scatter measurements were conducted using 488 nm laser light. In another series of experiments, we have used the related indicator of oxidative stress, H2DCFDA (Invitrogen, USA). The experiment started by adding GO-203 to the cell growth medium; then 10 min later 5 μM of H2DCFDA has been added. After 20 min incubations with H2DCFDA, the cells were harvested with trypsin-EDTA and suspended in a fresh medium. Cell fluorescence was then immediately measured by flow cytometry. The same procedure was followed for the ROS-insensitive (control) modification of the fluorescent probe, DCFDA.
For live cell microscopy, HT-1080 cells were seeded into 35-mm сell imaging dish with cover glass bottom (Eppendorf, Germany) and allowed to attach for 24 h. The cell response to 5 μM GO-203 exposure was monitored using the Axio Observer. […]

In experiment [4] the test system is primary culture of human dermal fibroblasts (DF). Kind of experiment: MTS cell viability assay, dermal fibroblasts. On the technique in general: Tetrazolium dyes change colour on reduction, which living cells bring about.
Method: As a next step, we used MTS assay[27] to examine the effect of GO peptides on the viability of the four described cell cultures as a function of different treatment schemes. […] This treatment regimen is labeled 4 × 5 underneath the graph. Alternatively, we introduced 5 μM of peptide daily while exchanging the medium (denoted 4/5). Unlike the previous protocol, it avoids potential build-up of the peptide in the medium.
The treatment protocols are: 4 × 5 – four daily doses of 5 μM delivered without exchanging the growth medium; 4/5 – four daily doses of 5 μM delivered with exchanged growth medium; 1 × 5, 1 × 10, 1 × 15, and 1 × 20 – a single dose of 5, 10, 15, or 20 μM, respectively. MTS reagent was added to the wells 96 h after the first (and sometimes the only) application of the peptide and the optical density at 492 nm was measured to determine the fraction of the surviving cells.
As a next step, we set out to test the cytotoxic effect of these peptides on the normal cells.
Cell survival was measured using CellTiter 96 AQueous One Solution Cell Proliferation Assay (MTS test, Promega, USA). Cells have been seeded in a 96-well flat-bottom plate in 100 μl of culture medium (10^3 cells/well for A549, HT-1080, dermal fibroblasts and eMSC or 5 × 10^3 cells/well for ZR-75-1) and allowed to attach for 24 h. The starting amount of cells was chosen to account for their growth rate and degree of spreading such as to avoid excessive dilution in the beginning of the experiment or control cell overgrowth toward the end. After 24 h, 10 μl of peptide stock solution or PBS (control) were added to the wells. After 96 h, 20 μl of the MTS-reagent were added to each well and 1–2 h later optical density was measured at the wavelength 492 nm using the 96-well plate reader (Titertek Multiskan, Labsystems, Finland). All experiments were conducted in duplicate or triplicate.
The test system of a further experiment is ZR-75-1 cells. In words: Caspase 3/7 activation assay (CellEvent / SYTOX), ZR-75-1. The note with it: 10 μM, 4 h, Fig. 4D. In kind it is cell-based, human.
Text: as §1, §2, §3, §4

Setting [5] is: HT-1080, 5 μM, time-lapse microscopy.

Like-named read-outs stand apart in the source and are kept apart here.

With “[R]9CQCRRKN [GO-203, in clinical trials]”, the entries for the “quadrant I fraction (caspase-3/7 / SYTOX)” value with HT-1080 cells [1] and in the experiment with ZR-75-1 cells were 12.21% and 28.95%, respectively. In addition, the entries for the “quadrant II fraction (caspase-3/7 / SYTOX)” value in the experiment on HT-1080 cells [1] and in the experiment on ZR-75-1 cells were 23.20% and 35.47%, respectively. Moreover, the entries for the “quadrant III fraction (caspase-3/7 / SYTOX)” value with HT-1080 cells [1] and with ZR-75-1 cells were 64.49% and 35.18%, respectively. Moreover, the “quadrant IV fraction (caspase-3/7 / SYTOX)” value in the experiment on HT-1080 cells [1] is given as 0.11%; with ZR-75-1 cells it was 0.40%. For the same substance, the “Cell viability (MTS)” value in experiment [2] (1 × 5: single dose of 5 μM, 96 h) is listed as “essentially inconsequential”; in experiment [2] (1 × 10: single dose of 10 μM, 96 h), “nearly wipes out”; in experiment [2] (4/5: four daily doses of 5 μM with exchanged growth medium, 96 h), “inefficient”; in experiment [2] (4 × 5: four daily doses of 5 μM without exchanging growth medium, OD 492 nm 96 h after first application, duplicate or triplicate) it was “essentially complete cell death”; in experiment [4] (dermal fibroblasts, 1 × 5: single dose of 5 μM, 96 h), “essentially inconsequential”; in experiment [4] (dermal fibroblasts, 4/5: four daily doses of 5 μM with exchanged growth medium, 96 h), “inefficient”. The “Cell viability (MTS)” value in experiment [4] (dermal fibroblasts, 4 × 5: four daily doses of 5 μM without exchanging growth medium, OD 492 nm 96 h after first application) is “essentially complete cell death”; in experiment [4] (skin (dermal) fibroblasts, 1 × 10: single dose of 10 μM, 96 h), “nearly wipes out”. In addition, in the experiment on HT-1080 cells [3] (setting [5]), the “Time to fully developed picture of apoptosis” value was 1.5 h. Besides, the “Time to morphological features of apoptosis (cell contraction, membrane blebbing)” value with HT-1080 cells [3] (setting [5]) is given as “within the first hour”. Besides, the “Time at which side angle light scatter starts to rise versus control” value in the experiment with HT-1080 cells [3] (suspended HT-1080 cells, 5 μM, flow cytometry, 488 nm) is listed as 30 min. The “Onset of apoptosis after application” value with HT-1080 cells [3] (treated cells, summary statement) is “ca. 30 min”.
